This note sets out measurements from PubChem BioAssay (NCI).

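A five-concentration, 48-hour dose response in 96-well plates underlies each endpoint, interpolated linearly between surrounding concentrations. TGI: total growth inhibition.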 Bounds are passed on as bounds.

Among the test systems are HOP-18 NSCLC; RXF-631 renal; DMS 273 small cell lung; DLD-1 colon; P388 leukemia; SN12K1 renal; P388/ADR leukemia.
Holding throughout (assay): NCI tumour cell line growth inhibition, 48 h

`O=C(Nc1cccc2c1[nH]c1c(-c3ccccc3)nccc12)c1ccccc1[N+](=O)[O-]`: the TGI with HOP-18 NSCLC, in the assay on RXF-631 renal and in the assay with DMS 273 small cell lung was above 100 µM in each case.

For the compound `CCCCCC/C=C1\CCC(CN2CCOCC2)C1=O` (configuration not stated), the TGI in the assay with HOP-18 NSCLC amounted to 20 µM; with DLD-1 colon, 27.4 µM; in the assay on DMS 273 small cell lung, 32.5 µM.

For the compound `COc1cccc(NC(=O)C(=O)C(C(=O)c2ccccc2F)C2OC(=O)c3ccccc32)c1` (configuration not stated), the TGI in the assay with DLD-1 colon and in the assay on DMS 273 small cell lung was above 100 µM in each case.

As for `CCN(CC)CCNc1ccc2nnn3c4ccc(O)cc4c(=O)c1c23`, the TGI was found to be 42.7 µM in the assay on HOP-18 NSCLC and 17.5 µM in the assay on DLD-1 colon.

In the case of `CSc1nc2c(ncn2C2OCC(O)C(O)C2O)c(=O)n1C` (configuration not stated), the TGI with HOP-18 NSCLC, in the assay on DLD-1 colon, in the assay with P388 leukemia, in the assay on SN12K1 renal, in the assay with P388/ADR leukemia and in the assay with DMS 273 small cell lung was above 100 µM throughout.

Turning to `COC(=O)C(C/C=C(\C)c1ccc(Cl)cc1)C(C)=O` (configuration not stated), the TGI was above 100 µM in the assay on HOP-18 NSCLC; above 100 µM in the assay with DLD-1 colon; 46 µM in the assay on P388 leukemia; above 61.7 µM in the assay on SN12K1 renal; above 76.5 µM in the assay with P388/ADR leukemia; above 72 µM in the assay on DMS 273 small cell lung.

On to `CC(C)(C)C1=CC(=C2C(=O)C(=O)c3ccccc3C2=O)C=C(C(C)(C)C)C1=O`, for which the TGI in the assay on HOP-18 NSCLC, in the assay with DLD-1 colon and in the assay with DMS 273 small cell lung was above 100 µM in each case.

Consider `CC(=O)NC(Cc1ccsc1)C(=O)O` (configuration not stated), for which the TGI with HOP-18 NSCLC, in the assay on DLD-1 colon, with P388 leukemia, with SN12K1 renal, in the assay with P388/ADR leukemia and with DMS 273 small cell lung was above 100 µM in each case.

As for `O=C(O)C12CCCCC1CCCC2` (configuration not stated), the TGI in the assay on HOP-18 NSCLC, in the assay with DLD-1 colon and in the assay with DMS 273 small cell lung was above 100 µM in each case.

For the compound `COc1cc(C2C(Cl)C(=O)N2NC(=O)c2ccc(N)cc2)cc(Br)c1O` (configuration not stated), the TGI was 40.2 µM with DLD-1 colon and 31.9 µM in the assay with DMS 273 small cell lung.

As for `O=Cc1ccc(CCl)cc1`, the TGI in the assay on HOP-18 NSCLC came out at 37.4 µM; with DLD-1 colon it was 31.4 µM; in the assay on RXF-631 renal, 14.7 µM; in the assay on DMS 273 small cell lung, 38.8 µM.

Consider `Cc1c2ccncc2c(C)c2c1[nH]c1ccc(OCC(F)(F)F)cc12`, for which the TGI in the assay on DLD-1 colon is 3.32 µM; in the assay on DMS 273 small cell lung it was 2.17 µM.
